Results from paper PMC12279193 (Advanced Science, 2025).

Tests used:
HCoV-OC43 spike protein = biological target: T1, HCoV-OC43 spike protein (Human coronavirus OC43, UniProt P36334); type: binding
T1 construct: gene S

[1] = biological target: S-RBD protein; SARS-CoV-2 RBD (Severe acute respiratory syndrome coronavirus 2, UniProt P0DTC2); assay: 1H CPMG and STD NMR; DARTS; type: binding; conditions: 200 µM S416, 5 µM RBD, PBS in D2O, 5% DMSO-d6, 25 °C

T1 sequence (P36334 14-1297): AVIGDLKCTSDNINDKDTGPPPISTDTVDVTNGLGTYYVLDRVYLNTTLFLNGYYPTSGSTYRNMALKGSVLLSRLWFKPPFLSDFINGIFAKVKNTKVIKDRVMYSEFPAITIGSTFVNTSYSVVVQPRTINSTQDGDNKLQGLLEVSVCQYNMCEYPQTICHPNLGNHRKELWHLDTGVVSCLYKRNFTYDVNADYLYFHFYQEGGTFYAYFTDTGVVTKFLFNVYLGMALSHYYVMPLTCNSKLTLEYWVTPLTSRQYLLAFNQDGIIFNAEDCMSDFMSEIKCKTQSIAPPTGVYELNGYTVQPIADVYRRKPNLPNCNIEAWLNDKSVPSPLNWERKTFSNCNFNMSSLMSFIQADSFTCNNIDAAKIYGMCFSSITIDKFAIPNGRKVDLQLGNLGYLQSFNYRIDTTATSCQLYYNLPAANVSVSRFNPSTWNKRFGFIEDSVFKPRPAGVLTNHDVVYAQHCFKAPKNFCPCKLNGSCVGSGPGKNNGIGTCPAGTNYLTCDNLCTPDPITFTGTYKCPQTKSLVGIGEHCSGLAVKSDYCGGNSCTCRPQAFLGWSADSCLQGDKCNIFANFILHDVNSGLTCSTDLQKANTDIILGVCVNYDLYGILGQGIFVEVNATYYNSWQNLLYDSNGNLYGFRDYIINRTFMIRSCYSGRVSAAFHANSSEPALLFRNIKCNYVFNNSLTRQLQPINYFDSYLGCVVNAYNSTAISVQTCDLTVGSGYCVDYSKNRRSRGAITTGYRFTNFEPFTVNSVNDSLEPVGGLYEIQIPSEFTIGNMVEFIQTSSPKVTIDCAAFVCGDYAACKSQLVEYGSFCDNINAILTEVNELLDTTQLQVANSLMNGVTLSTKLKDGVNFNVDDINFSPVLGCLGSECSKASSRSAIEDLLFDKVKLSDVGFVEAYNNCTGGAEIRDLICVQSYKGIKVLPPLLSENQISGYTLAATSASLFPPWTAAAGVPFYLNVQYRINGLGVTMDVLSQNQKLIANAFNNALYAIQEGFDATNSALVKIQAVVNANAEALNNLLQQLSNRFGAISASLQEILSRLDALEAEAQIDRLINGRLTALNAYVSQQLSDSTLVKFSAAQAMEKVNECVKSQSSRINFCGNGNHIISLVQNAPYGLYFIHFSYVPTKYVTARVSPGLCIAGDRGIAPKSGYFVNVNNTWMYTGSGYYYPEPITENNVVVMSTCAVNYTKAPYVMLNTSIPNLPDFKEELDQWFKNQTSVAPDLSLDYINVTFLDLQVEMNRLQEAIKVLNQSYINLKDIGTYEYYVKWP

CN(/N=C/c1ccccc1C(=O)O)c1nc(-c2ccccc2Cl)cs1 [S416]
Kd (HCoV-OC43 spike protein): 33.3 µM | 1H CPMG and STD NMR; DARTS [1]: confirmed that S416 could indeed bind to RBD directly
